Results as given in patent US12208085B2, “Pyrazoline-derived compound for use in the prevention and/or treatment of pain and inflammation associated to surgery in mammals” (ECUPHAR NV, priority 2022, dated 2025).

Experiments:
Assay type in all cases: in vivo
[1] = test system: dogs undergoing experimental orthopaedic surgery; test: Postoperative pain after experimental knee surgery (Maquet Modified Procedure), SFGCPS scoring; settings: Beagle dogs
Description: The study was performed with 6 clinically healthy Beagle dogs with similar age and weight that were experimentally subjected to knee surgery (repair of cranial cruciate ligament rupture). […] All surgeries were conducted under the same preoperative, intraoperative and postoperative protocols and performed by the same surgeon. A highly standardized surgical technique, Maquet Modified Procedure (MMP) (12) was implemented.
For each dog the study lasted 17 days, including a 7-day acclimatization period. On day D−1 (approximately 24 h before the intervention) the five dogs in the TG received a single oral dose (8 mg/kg) of the TP, the one dog in the CG received a single subcutaneous dose (0.1 mg/kg) of the RP. […] On day D0 all dogs underwent knee surgery in the right knee. From day D1 up to day D10 dogs were closely examined and signs of pain and discomfort were blindly evaluated and rated using the Short Form of the Glasgow Composite Pain Scale (SFGCPS) ranging from 0 to 24 (13 and http://www.newmetrica.com/cmps/). On day D−1 dogs were also examined to rule out signs of pain or discomfort.

[2] = test system: dogs undergoing soft tissue surgery; test: Pilot field trial, postoperative pain and inflammation after elective soft tissue surgery (SFGCMPS, VAS), Placebo control; set-up: SFGCMPS Mobility average value / SFGCMPS Demeanour average value / SFGCMPS Posture/Activity average value / Total SFGCMPS average value / SFGCMPS Vocalization average value / SFGCMPS Attention to wound average value: scale not given here
Source text: The study was a single centre, prospective, parallel-controlled, randomized and blinded pilot field trial with a negative (Placebo) control to evaluate the efficacy of E-6087 in dogs undergoing elective soft tissue surgery.
Twenty dogs (17 females and 3 males) were included in the study. Dogs were of different breeds or crossbreed, ages from 3 months to 7 years and weights from 4 to 34 kg. All dogs were clinically healthy other than the condition causing the animal to go under surgery.
Two days before surgery animals were weighed, a detailed physical examination was performed, and blood samples were collected for routine haematology and biochemistry to confirm the good health status of the animals before inclusion.
Dogs were randomly allocated to receive either E-6087 or Placebo as oral tablets. E-6087 and Placebo tablets were similar (same appearance and packaging), therefore treatment administration, clinical examinations and blood sample analysis was always blind.
E-6087 was administered at the dose of 8 mg/kg on day D−1, approximately 24 h before surgery scheduled time, before the first meal of the day. Placebo tablets were administered following the same posology.
Surgeries were performed in the morning, on day D0 by the Investigator (Surgeon). All surgeries were performed under the same anaesthesia protocol. Premedication was performed with medetomidine and morphine both at 0.1 ml/10 kg followed by anaesthesia maintained with Tiletamine/Zolazepam (Zoletil®). Local anaesthesia was not permitted. At the end of surgery, antibiotic therapy was administered to all dogs following the post-operative protocol stablished: amoxicillin (trihydrate) at 15 mg of amoxicillin/kg bw in a single dose.
Clinical assessments of postoperative pain and inflammation were done by the Investigator (Examining Veterinarian) using the SFGCMPS (13). Visual Analog Scales (VAS) were also used to assess pain at rest and under palpation as well as the level of inflammation.
On D0 at approximately 2 hours before surgery the Examining Veterinarian performed a physical examination and the clinical assessment of pain and inflammation to determine the basal scores. After surgery pain and inflammation were assessed at six examination time points: t1.5 h, t3 h, t5 h (±30 minutes), t8 h (±1 hour), t24 h and t168 (D7), when t0 h corresponded to the end of surgery (extubation).
Clinical assessment of pain and inflammation included assessments of vocalization, attention to wound area, mobility, reaction to pressure at the wound area, general behaviour as well as activity and posture as per SFGCMPS. In addition, pain at rest and after palpation as well as the level of inflammation were assessed at the same time points by VAS ranging from 0 (no pain) to 100 (severe pain manifested by vocalization, aggression, and refusal to allow examination) and from 0 (no inflammation) to 100 (major inflammation as local heat, redness or paresis of the affected area).
Statistical Analysis was performed by use of commercially available software (SigmaPlot for Windows version 13.0). The area under the curve (AUC) was calculated for observable pain during the initial 8 and 24 hours, and it was considered as the primary efficacy variable. All analyses applied a two-sided significance level α=0.05 and a power β=80%. Demographic and baseline data were compared using the Mann-Whitney U test. Gender was compared with the Fisher exact probability test in contingency tables. Efficacy variables were analysed by repeated measures ANOVA.
The foremost surgical procedure was ovariohysterectomy, and this determined that most included animals were females. Sixteen females were ovariohysterectomized. Two males were castrated by cryptorchidectomy. […] All surgeries lasted less than 30 minutes except for one that lasted 54 minutes (perineal hernia).

[3] = test system: dogs undergoing orthopaedic surgery; test: Non-inferiority field study, postoperative pain and inflammation after orthopaedic surgery (SFGCMPS, VAS), meloxicam control
Source text: The study was a non-inferiority, multicentre, prospective, parallel-controlled, randomized and blinded field study.
Thirty-two dogs of different breed, age and weight presenting at the veterinary practice for orthopaedic surgery were included.
Agents with analgesic effect were permitted as premedication. However, intraoperative or postoperative analgesia were not permitted.
For each dog the study lasted twelve days. Two days before surgery, all animals were weighed and underwent a thorough physical examination with clinical pathology to confirm the good health status of the animals before inclusion. Day 0 (D0) was the day dogs underwent surgery and t0 h corresponded to the end of surgery (extubation). The physical examination was repeated on D0, before surgery (t−2 h) and before dispatch (t8 h) and again at t24 h (D1) and t168 (D7) post-surgery. Clinical assessments of pain and inflammation were blindly performed on D0, before surgery (t−2 h) and again at t1.5 h, t3 h, t5 h, t8 h, t24 h (D1) and t168 h (D7) post-surgery. The global efficacy of treatments was assessed on D7. From day D1 to day D7 post-surgery, the owners assessed the dog's wellbeing.
The primary endpoint for efficacy comprises the sum of scores for the SFGCMPS scale, which was assessed at different time points by the Investigator.
From day D1 to D7, owners daily assessed the dogs' wellbeing using scales for: • Demeanour (0=normal; 1=slightly modified; 2=moderately modified; 3=markedly modified and 4=severely modified). • Mobility (0=normal; 1=slightly impaired; 2=moderately impaired; 3=markedly impaired and 4=severely impaired). • Quality of analgesia as very satisfactory (=1); satisfactory (=2); not very satisfactory (=3); not at all satisfactory (=4).
Blood samples were collected from all animals before inclusion (≤D−2), for routine pre-surgery blood profile. Potential adverse effects related to the products were also recorded.
Statistical Analysis was performed by use of commercially available software. All analyses used a two-sided significance level α=0.05. […]

[4] = 8 mg/kg oral D-1, 1.5 h after surgery
[5] = 8 mg/kg oral D-1, 3 h after surgery
[6] = 8 mg/kg oral D-1, 5 h after surgery
[7] = 8 mg/kg oral D-1, 8 h after surgery
[8] = 8 mg/kg oral D-1, 24 h after surgery

Structure (SMILES): NS(=O)(=O)c1ccc(N2N=C(C(F)(F)F)CC2c2ccc(F)cc2F)cc1 (stereo not shown) [E-6087, enflicoxib]
- potential adverse effects related to product administration ([1]; single oral dose 8 mg/kg on D-1): No potential adverse effects
- need of rescue analgesia ([1]; single oral dose 8 mg/kg on D-1, 10 days follow up): None of the animals needed rescue analgesia
- analgesic efficacy in the postoperative period after orthopaedic surgery ([1]; single oral dose 8 mg/kg on D-1, knee surgery D0): effective as analgesic agent
- SFGCMPS Attention to wound average value [2, 4]: 0
- SFGCMPS Demeanour average value [2, 4]: 0.83
- SFGCMPS Mobility average value [2, 4]: 0.33
- SFGCMPS Posture/Activity average value [2, 4]: 0.17
- SFGCMPS Pressure on wound average value [2, 4]: 0.33
- SFGCMPS Vocalization average value [2, 4]: 0.25
- Total SFGCMPS average value [2, 4]: 1.92
- SFGCMPS Attention to wound average value [2, 5]: 0.08
- SFGCMPS Demeanour average value [2, 5]: 0.50
- SFGCMPS Mobility average value [2, 5]: 0
- SFGCMPS Posture/Activity average value [2, 5]: 0.08
- SFGCMPS Pressure on wound average value [2, 5]: 0.42
- SFGCMPS Vocalization average value [2, 5]: 0.25
- Total SFGCMPS average value [2, 5]: 1.33
- level of inflammation (VAS), compared with Placebo ([2]; 8 mg/kg oral D-1, 3 hours after surgery, p=0.021, Placebo greater): statistically significant differences
- SFGCMPS Attention to wound average value [2, 6]: 0.08
- SFGCMPS Demeanour average value [2, 6]: 0.17
- SFGCMPS Mobility average value [2, 6]: 0
- SFGCMPS Posture/Activity average value [2, 6]: 0
- SFGCMPS Pressure on wound average value [2, 6]: 0.50
- SFGCMPS Vocalization average value [2, 6]: 0
- Total SFGCMPS average value [2, 6]: 0.75
- SFGCMPS Attention to wound average value [2, 7]: 0
- SFGCMPS Demeanour average value [2, 7]: 0
- SFGCMPS Mobility average value [2, 7]: 0
- SFGCMPS Posture/Activity average value [2, 7]: 0
- SFGCMPS Pressure on wound average value [2, 7]: 0.67
- SFGCMPS Vocalization average value [2, 7]: 0
- Total SFGCMPS average value [2, 7]: 0.50
- SFGCMPS Attention to wound average value [2, 8]: 0
- SFGCMPS Demeanour average value [2, 8]: 0
- SFGCMPS Mobility average value [2, 8]: 0
- SFGCMPS Posture/Activity average value [2, 8]: 0
- SFGCMPS Pressure on wound average value [2, 8]: 0.50
- SFGCMPS Vocalization average value [2, 8]: 0
- Total SFGCMPS average value [2, 8]: 0.50
- AUC (primary efficacy variable) for the first 24 hours after surgery, compared with Placebo ([2]; 8 mg/kg oral D-1, difference not statistically significant (p=0.266)): almost half
- SFGCMPS AUC0→8 h ([2]; 8 mg/kg oral D-1, first 8 hours after surgery): 8.0 ± 5.0
- SFGCMPS AUC0→24 h ([2]; 8 mg/kg oral D-1, first 24 hours after surgery): 16.0 ± 15
- AUC for the first 8 hours, compared with Placebo ([2]; 8 mg/kg oral D-1, p=0.033): statistically significant lower values
- Total scores for SFGCMPS at each time point, compared with Placebo ([2]; 8 mg/kg oral D-1, significant only at 1.5, 3 and 5 hours): always lower
- adverse events ([2]; 8 mg/kg oral D-1, whole study): No adverse events were observed
- alleviation of pain and inflammation after soft tissue surgery (conclusion) ([2]; single dose of 8 mg/kg): effective in alleviating pain and inflammation
- level of inflammation (VAS), compared with meloxicam ([3]; 8 mg/kg oral D-1, 3 h after surgery, p=0.025): lower values
- assessment of global efficacy, compared with meloxicam ([3]; 8 mg/kg oral D-1, D7, p=0.7879): No differences were detected
- SFGCMPS (AUC), primary efficacy variable, average value ([3]; initial 24 hours after orthopaedic surgery, E-6087 8 mg/kg oral D-1, meloxicam 0.2 mg/kg D0 then 0.1 mg/kg daily to D7): 95.50±57.70
